28 compounds from patent US7332504B2, “Heterocyclic substituted aminoazacycles useful as central nervous system agents” (Abbott Laboratories, priority 1999, dated 2008) can be followed below.

Counter-ions that a name gives are not always drawn. A value given as a limit tells only on which side of the number the result lay.

Series [1] concerns mouse hot plate paradigm. As to the kind of experiment: Mouse hot plate paradigm (analgesia). The format is in vivo. The following applies: ip, 0.5 h, mice, intraperitoneal, dosed 30 minutes prior to testing, hot plate 55° C., increase in tenth jump latency relative to control, read-out: minimally effective dose (MED). The method, then:
An in vivo protocol was utilized to determine the effectiveness of nicotinic acetylcholine receptor ligands as analgesic agents in the mouse hot plate paradigm.
Separate groups of mice, (n=8/group) were utilized for each dose group. All drugs were administered by the intraperitoneal route of administration. Test drugs were dissolved in water to make a 6.2 mM stock solution. Animals were dosed with this solution (10 mL/kg body weight) for a 62 micromol/kg dose. Lower doses were administered similarly, following serial dilution of the stock solution in half-log increments. Animals were dosed 30 minutes prior to testing in the hot plate. The hot-plate utilized was an automated analgesia monitor (Model #AHP16AN, Omnitech Electronics, Inc. of Columbus, Ohio). The temperature of the hot plate was maintained at 55° C. and a cut-off time of 180 seconds was utilized. Latency until the tenth jump was recoreded as the dependent measure. An increase in the tenth jump latency relative to the control was considered an effect.

Series [2] addresses T1, neuronal nicotinic acetylcholine receptors (Rattus norvegicus, UniProt P09483+P12390).
T1 construct: crude synaptic membrane preparations from whole rat brain; from tissue; host or cells: whole rat brain, crude synaptic membranes
As to the kind of experiment: Binding of [3H]-cytisine to neuronal nicotinic acetylcholine receptors, crude synaptic membranes from whole rat brain. The protocol:
The In Vitro protocols for determination of nicotinic acetylcholine channel receptor binding potencies of ligands were determined as follows.
Binding of [^3H]-cytisine ([^3 H]-CYT) to neuronal nicotinic acetylcholine receptors was accomplished using crude synaptic membrane preparations from whole rat brain (Pabreza et al., Molecular Pharmacol., 1990, 39:9). Washed membranes were stored at —80° C. prior to use. Frozen aliquots were slowly thawed and resuspended in 20 volumes of buffer (containing: 120 mM NaCl, 5 mM KCl, 2 mM MgCl2, 2 mM CaCl2 and 50 mM Tris-Cl, pH 7.4 @4° C.). After centrifuging at 20,000×g for 15 minutes, the pellets were resuspended in 30 volumes of buffer.
The test compounds were dissolved in water to make 10 mM stock solutions. Each solution was then diluted (1:100) with buffer (as above) and further taken through seven serial log dilutions of produce test solution from 10^−5 to 10^−11 M.
Homogenate (containing 125-150 μg protein) was added to triplicate tubes containing the range of concentrations of test compound described above and [^3H]-CYT (1.25 nM) in a final volume of 500 μL. Samples were incubated for 60 minutes at 4° C., then rapidly filtered through Whatman GF/B filters presoaked in 0.5% polyethyleneimine using 3×4 mL of ice-cold buffer. The filter are counted in 4 mL of Ecolume® (ICN). Nonspecific binding was determined in the presence of 10 μM (−)-nicotine and values were expressed as a percentage of total binding. IC50 values were determined with the RS-1 (BBN) nonlinear least squares curve-fitting program and IC50 values were converted to Ki values using the Cheng and Prusoff correction ([…].

T1 sequence (P09483 31-630): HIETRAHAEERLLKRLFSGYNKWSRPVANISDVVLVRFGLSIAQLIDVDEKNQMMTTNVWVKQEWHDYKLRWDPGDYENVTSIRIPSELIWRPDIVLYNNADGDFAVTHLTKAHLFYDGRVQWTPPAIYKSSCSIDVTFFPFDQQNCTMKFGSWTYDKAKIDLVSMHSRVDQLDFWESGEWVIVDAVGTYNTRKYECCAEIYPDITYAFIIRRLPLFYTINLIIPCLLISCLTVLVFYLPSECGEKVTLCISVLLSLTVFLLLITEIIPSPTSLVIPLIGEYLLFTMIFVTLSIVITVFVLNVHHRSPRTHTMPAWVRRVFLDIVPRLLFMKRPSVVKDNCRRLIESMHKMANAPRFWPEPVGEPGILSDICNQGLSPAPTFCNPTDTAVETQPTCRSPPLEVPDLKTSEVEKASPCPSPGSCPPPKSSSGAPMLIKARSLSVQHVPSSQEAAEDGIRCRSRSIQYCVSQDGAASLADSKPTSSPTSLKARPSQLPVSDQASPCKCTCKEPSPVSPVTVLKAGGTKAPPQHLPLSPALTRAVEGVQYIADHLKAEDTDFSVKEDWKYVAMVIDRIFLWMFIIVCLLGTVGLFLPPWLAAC
T1 sequence (P12390 25-500): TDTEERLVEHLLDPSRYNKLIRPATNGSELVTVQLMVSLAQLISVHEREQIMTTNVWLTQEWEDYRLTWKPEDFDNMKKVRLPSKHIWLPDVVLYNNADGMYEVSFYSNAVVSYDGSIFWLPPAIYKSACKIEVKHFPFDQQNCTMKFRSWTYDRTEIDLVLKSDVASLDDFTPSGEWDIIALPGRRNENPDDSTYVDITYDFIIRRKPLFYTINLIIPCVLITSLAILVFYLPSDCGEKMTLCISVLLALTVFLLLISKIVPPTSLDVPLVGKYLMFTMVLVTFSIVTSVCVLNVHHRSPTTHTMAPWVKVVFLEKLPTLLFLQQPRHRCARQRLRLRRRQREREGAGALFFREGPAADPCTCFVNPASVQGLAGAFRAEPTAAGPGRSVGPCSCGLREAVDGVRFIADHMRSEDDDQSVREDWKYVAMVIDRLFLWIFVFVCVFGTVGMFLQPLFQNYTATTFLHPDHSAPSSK

Broadly, the melting point is the temperature, or range, at which the solid turns liquid. Consider `CN(C)[C@H]1CCN(c2ccc(Cl)nc2)C1` (as salt: benzenesulfonate) [Example 3, N-[(3S)-1-(6-chloro-3-pyridinyl)pyrrolidinyl]-N,N-dimethylamine 4-methylbenzenesulfonate], for which the melting point was 190 to 191.5 °C.

Take `N[C@@H]1CCN(c2ccc(Cl)nc2)C1` (as salt: benzenesulfonate) [Example 4, (3R)-1-(6-chloro-3-pyridinyl)pyrrolidinylamine 4-methylbenzenesulfonate]: the melting point was 224.5 to 225.5 °C. The compound `N[C@H]1CCCN(c2cccnc2)C1` (as salt: benzenesulfonate) [Example 41, (3S)-1-(3-pyridinyl)piperidinylamine bis(4-methylbenzenesulfonate)] registered a melting point of 64 to 66 °C.

For the compound `N[C@H]1CCCN(c2ccc(Cl)nc2)C1` (as salt: benzenesulfonate) [Example 45, (3S)-1-(6-chloro-3-pyridinyl)piperidinylamine bis(4-methylbenzenesulfonate)], the melting point lay within 182 to 184 °C. Same read-out and setting: in the case of `N[C@H]1CCN(c2cncc([N+](=O)[O-])c2)C1` (as salt: fumarate) [Example 29, (3S)-1-(5-nitro-3-pyridinyl)pyrrolidinylamine fumarate] it was 213 to 214 °C; in that of `CN[C@H]1CCN(c2cncc([N+](=O)[O-])c2)C1` (as salt: fumarate) [Example 30, N-methyl-N-[(3S)-1-(5-nitro-3-pyridinyl)pyrrolidinyl]amine fumarate], 183 to 185 °C; in that of `N[C@@H]1CCN(c2cncc([N+](=O)[O-])c2)C1` (as salt: fumarate) [Example 31, (3R)-1-(5-nitro-3-pyridinyl)pyrrolidinylamine fumarate], 212 to 213 °C. On the same count and under the same terms, the value for `CN[C@@H]1CCN(c2cncc([N+](=O)[O-])c2)C1` (as salt: fumarate) [Example 32, N-methyl-N-[(3R)-1-(5-nitro-3-pyridinyl)pyrrolidinyl]amine fumarate] was 184 to 185 °C; that for `CN[C@H]1CCN(c2ccc(Cl)nc2)C1` (as salt: hydrochloride) [Example 1, N-[(3S)-1-(6-chloro-3-pyridinyl)pyrrolidinyl]-N-methylamine hydrochloride] was over 250 °C. The same measure, in the same setting: in the case of `N[C@H]1CCN(c2ccc(Cl)nc2)C1` (as salt: hydrochloride) [Example 2, (3S)-1-(6-chloro-3-pyridinyl)pyrrolidinylamine dihydrochloride] it was over 250 °C; in that of `CN[C@@H]1CCN(c2ccc(Cl)nc2)C1` (as salt: hydrochloride) [Example 5, N-[(3R)-1-(6-chloro-3-pyridinyl)pyrrolidinyl]-N-methylamine hydrochloride], 265 °C (dec.). `N[C@@H]1CCN(c2cncc(C(F)(F)F)c2)C1` (as salt: hydrochloride) [Example 11, (3R)-1-[5-(trifluoromethyl)-3-pyridinyl]pyrrolidinylamine dihydrochloride] displayed a melting point of 234 to 235 °C.

Turning to `CN[C@@H]1CCN(c2cncc(C(F)(F)F)c2)C1` (as salt: hydrochloride) [Example 12, N-methyl-N-{(3R)-1-[5-(trifluoromethyl)-3-pyridinyl]pyrrolidinyl}amine hydrochloride], the melting point was 265 °C (dec.). Still for that read-out and setting: the value for `N[C@H]1CCN(c2cncc(C(F)(F)F)c2)C1` (as salt: hydrochloride) [Example 13, (3S)-1-[5-(trifluoromethyl)-3-pyridinyl]pyrrolidinylamine dihydrochloride] was 235 to 236 °C.

A word on the Ki: it is a measure of affinity in units of concentration, obtained from inhibition or displacement. Higher therefore signals lower affinity. As to `N[C@@H]1CCN(c2cnc(Cl)c(Cl)c2)C1` [Example 21, (3R)-1-(5,6-dichloro-3-pyridinyl)pyrrolidinylamine dihydrochloride], the minimal effective dose in series [1] is 6.2 µmol/kg. In addition, the inhibition constant Ki in series [2] came to 0.13 nM. In the same order, the values of `CN[C@@H]1CCN(c2cnc(Cl)c(Cl)c2)C1` [Example 22, N-[(3R)-1-(5,6-dichloro-3-pyridinyl)pyrrolidinyl]-N-methylamine hydrochloride] are 19 µmol/kg and 13 nM. On the same counts, the results for `COc1cc(N2CC[C@H](N)C2)cnc1Cl` [Example 23, (3S)-1-(6-chloro-5-methoxy-3-pyridinyl)pyrrolidinylamine dihydrochloride] are 62 µmol/kg and 0.13 nM.

For the compound `CN[C@H]1CCN(c2cnc(Cl)c(OC)c2)C1` [Example 24, N-[(3S)-1-(6-chloro-5-methoxy-3-pyridinyl)pyrrolidinyl]-N-methylamine dihydrochloride], the minimal effective dose in series [1] stood at 62 µmol/kg. In series [2], this compound showed an inhibition constant (Ki) of 4.1 nM. In the same order, the values of `Cc1cc(N2CC[C@H](N)C2)cnc1F` [Example 25, (3S)-1-(6-fluoro-5-methyl-3-pyridinyl)pyrrolidinylamine hydrochloride] are 6.2 µmol/kg and 0.34 nM. In the same order, the values of `N[C@H]1CCN(c2cncc([N+](=O)[O-])c2)C1` [Example 29, (3S)-1-(5-nitro-3-pyridinyl)pyrrolidinylamine fumarate] are 19 µmol/kg and 0.7 nM. In the case of `N[C@@H]1CCN(c2cncc([N+](=O)[O-])c2)C1` [Example 31, (3R)-1-(5-nitro-3-pyridinyl)pyrrolidinylamine fumarate], the minimal effective dose in series [1] was found to be 6.2 µmol/kg. Affinity in series [2] was put at a Ki of 3.5 nM. On the same counts, the results for `NC1CCCN(c2ccc(Cl)nc2)C1` (stereo not drawn) [Example 38, 1-(6-chloro-3-pyridinyl)-3-piperidinylamine 4-methylbenzenesulfonate] are 6.2 µmol/kg and 0.51 nM. On the same counts, the results for `N[C@H]1CCCN(c2cccnc2)C1` [Example 41, (3S)-1-(3-pyridinyl)piperidinylamine bis(4-methylbenzenesulfonate)] are 19 µmol/kg and 0.89 nM. In the same order, the values of `CN[C@H]1CCCN(c2cccnc2)C1` [Example 42, N-methyl-N-[(3S)-1-(3-pyridinyl)piperidin-3-yl]amine bis(4-methylbenzenesulfonate)] are 62 µmol/kg and 83 nM. For the compound `N[C@@H]1CCCN(c2cccnc2)C1` [Example 43, (3R)-1-(3-pyridinyl)piperidinylamine bis(4-methylbenzenesulfonate)], the minimal effective dose in series [1] came to 0.62 µmol/kg. This compound showed a Ki in series [2] of 1.1 nM. On the same counts, the results for `N[C@H]1CCCN(c2ccc(Cl)nc2)C1` [Example 45, (3S)-1-(6-chloro-3-pyridinyl)piperidinylamine bis(4-methylbenzenesulfonate)] are 0.62 µmol/kg and 0.35 nM. In the same order, the values of `CN[C@H]1CCCN(c2ccc(Cl)nc2)C1` [Example 46, N-[(3S)-1-(6-chloro-3-pyridinyl)piperidin-3-yl]-N-methylamine dihydrochloride] are 62 µmol/kg and 60 nM. On the same counts, the results for `N[C@@H]1CCCN(c2ccc(Cl)nc2)C1` [Example 47, (3R)-1-(6-chloro-3-pyridinyl)piperidin-3-ylamine bis(4-methylbenzenesulfonate)] are 1.9 µmol/kg and 0.38 nM.
